Experimental data from patent US9284325B2, “Spectinamides as anti-tuberculosis agents” (UNIVERSITY OF TENNESSEE RESEARCH FOUNDATION, priority 2009, dated 2016).
Where a name gives a salt, the structure may show the parent alone.

System: M. tuberculosis drug-resistant strains and mutants
Type: cell-based, Mycobacterium tuberculosis

CN[C@@H]1[C@H](O)[C@H](NC)C2O[C@]3(O)C(OC2[C@H]1O)O[C@H](C)C[C@H]3NC(=O)Cc1ccccn1 (stereo partly drawn) [Compound 1329, 3′-Dihydro-3′-deoxy-4(R)-(pyridin-2yl)acetylamino spectinomycin Dihydrochloride]
cross resistance with first-line TB drugs isoniazid, rifampicin and ethambutol: no cross resistance
susceptibility of spontaneous streptomycin mutants incl. ATCC 35820: highly susceptible
Activity (MIC) of 1329 compared to streptomycin (Dihydrochloride): >200
